Laboratory results: ChEMBL document CHEMBL4800727 (2021)
pKi: −log10 of the molar value.

What was measured:
[1] = target: T1, 5-hydroxytryptamine receptor 2B (Homo sapiens, UniProt P41595); assay: GPCRScan assay: inhibition of 5-HT2B; design: radioligand conc. used [nm] 1.0 – 2.0, parental cells stable HEK
[2] = target: Serine/threonine-protein kinase Chk1 (Homo sapiens) (UniProt O14757); assay: CHK1 checkpoint homolog (S. pombe) Millipore kinase panel; details: Compound concentration 10.0 uM
[3] = target: CDK9/cyclin T1 (Homo sapiens) (UniProt O60563+P50750); assay: cyclin-dependent kinase 9 / cyclinT1 Millipore kinase panel; format: protein-complex assay; details: Compound concentration 10.0 uM
[4] = target: Serine/threonine-protein kinase DCLK2 (Homo sapiens) (UniProt Q8N568); assay: doublecortin-like kinase 2 Millipore kinase panel; details: Compound concentration 10.0 uM
[5] = target: Ephrin type-A receptor 1 (Homo sapiens) (UniProt P21709); assay: EPH receptor A1 Millipore kinase panel; details: Compound concentration 10.0 uM
Ephrin type-A receptor 1 (Homo sapiens), sequence (P21709 whole entry): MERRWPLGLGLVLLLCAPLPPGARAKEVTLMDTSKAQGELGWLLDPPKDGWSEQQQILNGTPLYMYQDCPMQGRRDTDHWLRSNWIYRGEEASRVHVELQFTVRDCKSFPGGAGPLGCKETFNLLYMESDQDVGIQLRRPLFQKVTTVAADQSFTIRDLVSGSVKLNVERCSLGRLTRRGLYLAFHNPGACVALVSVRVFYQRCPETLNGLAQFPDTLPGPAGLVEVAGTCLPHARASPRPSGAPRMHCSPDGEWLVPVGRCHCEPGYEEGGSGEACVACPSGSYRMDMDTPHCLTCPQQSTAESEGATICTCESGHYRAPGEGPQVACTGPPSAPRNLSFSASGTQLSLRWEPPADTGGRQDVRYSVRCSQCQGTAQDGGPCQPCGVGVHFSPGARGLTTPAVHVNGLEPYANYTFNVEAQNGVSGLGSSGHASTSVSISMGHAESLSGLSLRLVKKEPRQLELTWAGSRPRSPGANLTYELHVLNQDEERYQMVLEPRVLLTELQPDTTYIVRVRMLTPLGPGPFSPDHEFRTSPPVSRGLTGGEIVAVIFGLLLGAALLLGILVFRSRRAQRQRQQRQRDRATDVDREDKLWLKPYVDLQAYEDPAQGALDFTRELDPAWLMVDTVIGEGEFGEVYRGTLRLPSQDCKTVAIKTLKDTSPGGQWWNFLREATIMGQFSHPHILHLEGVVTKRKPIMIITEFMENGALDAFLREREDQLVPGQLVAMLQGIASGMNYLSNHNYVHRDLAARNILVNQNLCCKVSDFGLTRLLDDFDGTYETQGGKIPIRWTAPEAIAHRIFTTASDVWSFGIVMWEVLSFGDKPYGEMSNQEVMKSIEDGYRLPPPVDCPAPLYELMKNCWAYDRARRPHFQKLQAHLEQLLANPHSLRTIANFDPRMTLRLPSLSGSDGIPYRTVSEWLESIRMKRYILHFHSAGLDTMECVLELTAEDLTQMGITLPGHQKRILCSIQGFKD

[6] = target: Ephrin type-B receptor 1 (Homo sapiens) (UniProt P54762); assay: EPH receptor B1 Millipore kinase panel; details: Compound concentration 10.0 uM
[7] = target: Fibroblast growth factor receptor 1 (Homo sapiens) (UniProt P11362); assay: fibroblast growth factor receptor 1 Millipore kinase panel; details: Compound concentration 10.0 uM
[8] = target: Tyrosine-protein kinase ITK/TSK (Homo sapiens) (UniProt Q08881); assay: IL2-inducible T-cell kinase Millipore kinase panel; details: Compound concentration 10.0 uM
[9] = target: Misshapen-like kinase 1 (Homo sapiens) (UniProt Q8N4C8); assay: misshapen-like kinase 1 Millipore kinase panel; details: Compound concentration 10.0 uM
[10] = target: Mitogen-activated protein kinase 12 (Homo sapiens) (UniProt P53778); assay: mitogen-activated protein kinase 12 Millipore kinase panel; details: Compound concentration 10.0 uM
[11] = target: Mitogen-activated protein kinase 13 (Homo sapiens) (UniProt O15264); assay: mitogen-activated protein kinase 13 Millipore kinase panel; details: Compound concentration 10.0 uM
Mitogen-activated protein kinase 13 (Homo sapiens), sequence (O15264 whole entry): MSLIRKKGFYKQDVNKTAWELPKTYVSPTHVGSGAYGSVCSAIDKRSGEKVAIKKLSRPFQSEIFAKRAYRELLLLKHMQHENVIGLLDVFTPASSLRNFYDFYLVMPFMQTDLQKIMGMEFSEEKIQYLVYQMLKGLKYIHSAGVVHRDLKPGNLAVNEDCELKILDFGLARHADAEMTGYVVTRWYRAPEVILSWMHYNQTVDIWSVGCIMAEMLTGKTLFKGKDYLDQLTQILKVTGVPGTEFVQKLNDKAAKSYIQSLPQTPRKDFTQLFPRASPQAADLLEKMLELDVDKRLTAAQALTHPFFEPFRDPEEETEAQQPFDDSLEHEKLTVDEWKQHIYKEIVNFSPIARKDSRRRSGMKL

[12] = target: Dual specificity mitogen-activated protein kinase kinase 1 (Homo sapiens) (UniProt Q02750); assay: mitogen-activated protein kinase kinase 1 Millipore kinase panel; details: Compound concentration 10.0 uM
Dual specificity mitogen-activated protein kinase kinase 1 (Homo sapiens), sequence (Q02750 whole entry): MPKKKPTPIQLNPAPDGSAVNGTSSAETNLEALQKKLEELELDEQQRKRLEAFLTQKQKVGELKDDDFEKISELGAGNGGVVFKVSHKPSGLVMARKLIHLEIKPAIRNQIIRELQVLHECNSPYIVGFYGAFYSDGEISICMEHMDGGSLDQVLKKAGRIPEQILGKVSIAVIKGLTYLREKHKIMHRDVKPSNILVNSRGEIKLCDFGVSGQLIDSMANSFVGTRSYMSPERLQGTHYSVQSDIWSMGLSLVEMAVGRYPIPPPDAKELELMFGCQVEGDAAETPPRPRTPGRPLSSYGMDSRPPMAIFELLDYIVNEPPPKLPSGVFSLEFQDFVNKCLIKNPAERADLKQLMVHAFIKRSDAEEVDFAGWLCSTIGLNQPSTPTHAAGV

[13] = target: Serine/threonine-protein kinase Nek2 (Homo sapiens) (UniProt P51955); assay: NIMA -related kinase 2 Millipore kinase panel; details: Compound concentration 10.0 uM
[14] = target: Protein kinase C alpha type (Homo sapiens) (UniProt P17252); assay: protein kinase C, alpha Millipore kinase panel; details: Compound concentration 10.0 uM
[15] = target: Protein kinase C beta type (Homo sapiens) (UniProt P05771); assay: protein kinase C, beta 1 Millipore kinase panel; details: Compound concentration 10.0 uM
[16] = species on record: Homo sapiens; assay: protein kinase C, beta 2 Millipore kinase panel; details: Compound concentration 10.0 uM
[17] = target: Protein-tyrosine kinase 2-beta (Homo sapiens) (UniProt Q14289); assay: PTK2B protein tyrosine kinase 2 beta Millipore kinase panel; details: Compound concentration 10.0 uM
Protein-tyrosine kinase 2-beta (Homo sapiens), sequence (Q14289 whole entry, looked up): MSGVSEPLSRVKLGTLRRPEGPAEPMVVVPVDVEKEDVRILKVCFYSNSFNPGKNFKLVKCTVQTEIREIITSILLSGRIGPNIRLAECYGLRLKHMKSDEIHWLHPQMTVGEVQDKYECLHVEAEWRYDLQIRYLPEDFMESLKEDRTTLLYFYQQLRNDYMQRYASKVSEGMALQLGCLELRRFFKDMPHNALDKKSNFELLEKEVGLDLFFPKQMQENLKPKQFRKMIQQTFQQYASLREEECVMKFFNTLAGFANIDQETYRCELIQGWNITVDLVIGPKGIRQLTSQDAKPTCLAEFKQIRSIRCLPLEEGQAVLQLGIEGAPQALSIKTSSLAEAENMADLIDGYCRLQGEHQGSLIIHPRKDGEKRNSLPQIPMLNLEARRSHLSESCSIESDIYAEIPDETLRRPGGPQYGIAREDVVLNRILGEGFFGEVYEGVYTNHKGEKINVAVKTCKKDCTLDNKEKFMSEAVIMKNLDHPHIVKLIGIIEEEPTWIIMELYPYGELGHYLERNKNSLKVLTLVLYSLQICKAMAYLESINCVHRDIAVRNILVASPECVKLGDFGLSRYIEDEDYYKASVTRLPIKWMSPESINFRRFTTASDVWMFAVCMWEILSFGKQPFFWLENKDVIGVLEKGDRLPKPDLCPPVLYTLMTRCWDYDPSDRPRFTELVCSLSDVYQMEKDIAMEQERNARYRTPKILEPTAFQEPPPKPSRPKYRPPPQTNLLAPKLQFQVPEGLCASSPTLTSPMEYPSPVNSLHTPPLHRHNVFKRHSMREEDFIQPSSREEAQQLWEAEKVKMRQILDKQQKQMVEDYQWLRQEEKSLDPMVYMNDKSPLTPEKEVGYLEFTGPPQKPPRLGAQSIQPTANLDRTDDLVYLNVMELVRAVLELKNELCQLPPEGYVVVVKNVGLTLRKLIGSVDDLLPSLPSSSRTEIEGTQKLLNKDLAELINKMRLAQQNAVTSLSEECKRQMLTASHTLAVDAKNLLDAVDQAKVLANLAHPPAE

[18] = target: Protein-tyrosine kinase 6 (Homo sapiens) (UniProt Q13882); assay: PTK6 protein tyrosine kinase 6 Millipore kinase panel; details: Compound concentration 10.0 uM
[19] = target: Serine/threonine-protein kinase 4 (Homo sapiens) (UniProt Q13043); assay: serine/threonine kinase 4 Millipore kinase panel; details: Compound concentration 10.0 uM
[20] = target: Serine/threonine-protein kinase Sgk1 (Homo sapiens) (UniProt O00141); assay: serum/glucocorticoid regulated kinase 1 Millipore kinase panel; details: Compound concentration 10.0 uM
[21] = target: Angiopoietin-1 receptor (Homo sapiens) (UniProt Q02763); assay: TEK tyrosine kinase, endothelial Millipore kinase panel; details: Compound concentration 10.0 uM
[22] = target: Receptor tyrosine-protein kinase erbB-4 (Homo sapiens) (UniProt Q15303); assay: v-erb-a erythroblastic leukemia viral oncogene homolog 4 Millipore kinase panel; details: Compound concentration 10.0 uM
[23] = target: RAF proto-oncogene serine/threonine-protein kinase (Homo sapiens) (UniProt P04049); assay: v-raf-1 murine leukemia viral oncogene homolog 1 Millipore kinase panel; details: Compound concentration 10.0 uM
[24] = target: Proto-oncogene tyrosine-protein kinase Src (Homo sapiens) (UniProt P12931); assay: v-src sarcoma viral oncogene homolog Millipore kinase panel; details: Compound concentration 10.0 uM
[25] = target: 3',5'-cyclic-AMP phosphodiesterase 4D (Homo sapiens, UniProt Q08499); assay: hPDE4D3 PDE scan
[26] = target: High affinity 3',5'-cyclic-AMP phosphodiesterase 7A (Homo sapiens, UniProt Q13946); assay: hPDE7A1 PDE scan
[27] = target: Melanocortin receptor 4 (Homo sapiens) (UniProt P32245); assay: hMC4 Cerep panel; details: Compound concentration 10.0 uM
[28] = target: T2, Muscarinic acetylcholine receptor M2 (Homo sapiens) (UniProt P08172); assay: hM2 Cerep panel; details: Compound concentration 10.0 uM
T2 sequence (whole entry): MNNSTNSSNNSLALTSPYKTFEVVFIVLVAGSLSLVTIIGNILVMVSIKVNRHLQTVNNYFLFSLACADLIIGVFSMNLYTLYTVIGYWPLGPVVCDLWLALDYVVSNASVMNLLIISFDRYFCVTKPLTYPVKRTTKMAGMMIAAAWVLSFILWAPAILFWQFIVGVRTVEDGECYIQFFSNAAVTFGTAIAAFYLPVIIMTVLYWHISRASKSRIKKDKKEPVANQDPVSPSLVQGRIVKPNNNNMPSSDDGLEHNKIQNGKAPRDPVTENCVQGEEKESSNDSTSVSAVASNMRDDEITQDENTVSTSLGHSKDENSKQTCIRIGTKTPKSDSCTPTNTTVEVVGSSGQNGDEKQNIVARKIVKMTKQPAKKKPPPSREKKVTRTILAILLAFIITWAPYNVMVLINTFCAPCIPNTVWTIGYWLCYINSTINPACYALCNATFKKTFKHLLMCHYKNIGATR

[29] = target: Muscarinic acetylcholine receptor M3 (Homo sapiens) (UniProt P20309); assay: hM3 Cerep panel; details: Compound concentration 10.0 uM
[30] = target: Glutamate NMDA receptor (Rattus norvegicus) (UniProt P35439+Q00959+Q00960+Q00961+Q62645+Q8VHN2+Q9R1M7); assay: rPCP Cerep panel; format: protein-complex assay; details: Compound concentration 10.0 uM
[31] = target: 5-hydroxytryptamine receptor 5A (Homo sapiens) (UniProt P47898); assay: h5HT5A Cerep panel; details: Compound concentration 10.0 uM
[32] = target: Vasopressin V1a receptor (Homo sapiens) (UniProt P37288); assay: hV1a Cerep panel; details: Compound concentration 10.0 uM
Vasopressin V1a receptor (Homo sapiens), sequence (P37288 whole entry, looked up): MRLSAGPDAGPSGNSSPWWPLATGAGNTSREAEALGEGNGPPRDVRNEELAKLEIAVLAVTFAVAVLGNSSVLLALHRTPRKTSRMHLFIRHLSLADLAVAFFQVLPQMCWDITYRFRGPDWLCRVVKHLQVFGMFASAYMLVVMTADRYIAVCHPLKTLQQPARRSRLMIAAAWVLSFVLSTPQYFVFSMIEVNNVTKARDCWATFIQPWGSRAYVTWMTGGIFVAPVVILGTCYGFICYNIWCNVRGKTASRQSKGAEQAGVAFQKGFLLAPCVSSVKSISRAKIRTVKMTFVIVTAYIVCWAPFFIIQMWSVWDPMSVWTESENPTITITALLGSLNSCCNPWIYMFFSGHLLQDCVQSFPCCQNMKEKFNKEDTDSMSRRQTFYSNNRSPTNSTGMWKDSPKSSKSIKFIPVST

[33] = target: T3, 5-hydroxytryptamine receptor 3A (Homo sapiens) (UniProt P46098); assay: h5HT3 Cerep panel; details: Compound concentration 10.0 uM
T3 sequence (whole entry): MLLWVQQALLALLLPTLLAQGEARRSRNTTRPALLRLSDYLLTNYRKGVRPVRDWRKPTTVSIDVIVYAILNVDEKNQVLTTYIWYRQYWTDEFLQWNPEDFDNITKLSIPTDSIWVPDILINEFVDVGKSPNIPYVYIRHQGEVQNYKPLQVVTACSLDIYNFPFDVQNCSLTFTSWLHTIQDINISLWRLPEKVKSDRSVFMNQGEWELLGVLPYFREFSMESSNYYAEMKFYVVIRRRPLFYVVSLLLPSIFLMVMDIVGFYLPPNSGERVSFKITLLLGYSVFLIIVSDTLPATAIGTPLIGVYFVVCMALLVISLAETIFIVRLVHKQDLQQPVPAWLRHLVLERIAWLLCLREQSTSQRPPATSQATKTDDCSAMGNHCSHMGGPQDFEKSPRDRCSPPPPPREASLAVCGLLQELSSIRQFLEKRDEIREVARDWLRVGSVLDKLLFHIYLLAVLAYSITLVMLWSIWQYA

[34] = target: Androgen receptor (Homo sapiens) (UniProt P10275); assay: hAR Cerep panel; details: Compound concentration 10.0 uM
Androgen receptor (Homo sapiens), sequence (P10275 whole entry): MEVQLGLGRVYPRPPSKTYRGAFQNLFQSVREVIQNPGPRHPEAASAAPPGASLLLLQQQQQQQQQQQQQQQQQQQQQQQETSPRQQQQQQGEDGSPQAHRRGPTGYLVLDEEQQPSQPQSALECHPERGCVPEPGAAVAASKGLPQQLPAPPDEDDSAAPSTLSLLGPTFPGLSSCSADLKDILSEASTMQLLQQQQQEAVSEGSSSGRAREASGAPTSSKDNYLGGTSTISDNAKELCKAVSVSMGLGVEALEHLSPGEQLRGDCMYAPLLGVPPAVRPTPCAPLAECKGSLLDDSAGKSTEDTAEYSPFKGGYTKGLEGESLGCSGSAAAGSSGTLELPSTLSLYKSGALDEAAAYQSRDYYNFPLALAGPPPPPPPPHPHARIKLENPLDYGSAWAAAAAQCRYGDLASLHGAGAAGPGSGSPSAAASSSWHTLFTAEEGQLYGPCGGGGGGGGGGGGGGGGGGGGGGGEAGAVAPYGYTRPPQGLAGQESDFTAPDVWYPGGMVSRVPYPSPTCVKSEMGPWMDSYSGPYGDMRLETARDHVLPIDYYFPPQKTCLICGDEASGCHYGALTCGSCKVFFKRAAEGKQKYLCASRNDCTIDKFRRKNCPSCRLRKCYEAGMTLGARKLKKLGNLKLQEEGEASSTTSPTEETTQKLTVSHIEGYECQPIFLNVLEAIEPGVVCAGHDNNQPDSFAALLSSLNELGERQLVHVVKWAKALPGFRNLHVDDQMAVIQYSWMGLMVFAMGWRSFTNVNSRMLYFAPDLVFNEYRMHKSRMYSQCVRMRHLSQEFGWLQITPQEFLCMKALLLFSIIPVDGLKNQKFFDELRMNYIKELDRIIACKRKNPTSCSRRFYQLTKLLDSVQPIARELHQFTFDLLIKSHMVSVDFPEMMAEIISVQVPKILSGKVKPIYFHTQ

[35] = target: T1, 5-hydroxytryptamine receptor 2B; assay: h5HT2B Cerep panel; details: Compound concentration 10.0 uM
[36] = target: Neuronal acetylcholine receptor; alpha4/beta2 (Homo sapiens) (UniProt P17787+P43681); assay: hNneuronala4b2 Cerep panel; details: Compound concentration 10.0 uM
[37] = target: D(1B) dopamine receptor (Homo sapiens) (UniProt P21918); details: Compound concentration 10.0 uM

T1 sequence (P41595 whole entry): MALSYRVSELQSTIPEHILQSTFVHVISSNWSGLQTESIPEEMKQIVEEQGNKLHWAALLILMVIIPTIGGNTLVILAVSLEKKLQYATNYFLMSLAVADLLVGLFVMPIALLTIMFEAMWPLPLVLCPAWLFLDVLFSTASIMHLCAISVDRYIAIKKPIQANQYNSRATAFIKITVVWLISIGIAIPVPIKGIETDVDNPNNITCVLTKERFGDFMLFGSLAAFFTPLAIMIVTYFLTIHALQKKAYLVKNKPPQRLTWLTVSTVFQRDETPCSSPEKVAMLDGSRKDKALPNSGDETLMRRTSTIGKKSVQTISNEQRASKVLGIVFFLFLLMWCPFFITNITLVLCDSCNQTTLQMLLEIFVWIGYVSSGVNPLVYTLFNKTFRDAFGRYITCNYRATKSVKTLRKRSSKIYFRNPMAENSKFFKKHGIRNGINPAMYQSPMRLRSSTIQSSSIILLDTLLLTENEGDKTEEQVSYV
Serine/threonine-protein kinase Chk1 (Homo sapiens), sequence (O14757 whole entry): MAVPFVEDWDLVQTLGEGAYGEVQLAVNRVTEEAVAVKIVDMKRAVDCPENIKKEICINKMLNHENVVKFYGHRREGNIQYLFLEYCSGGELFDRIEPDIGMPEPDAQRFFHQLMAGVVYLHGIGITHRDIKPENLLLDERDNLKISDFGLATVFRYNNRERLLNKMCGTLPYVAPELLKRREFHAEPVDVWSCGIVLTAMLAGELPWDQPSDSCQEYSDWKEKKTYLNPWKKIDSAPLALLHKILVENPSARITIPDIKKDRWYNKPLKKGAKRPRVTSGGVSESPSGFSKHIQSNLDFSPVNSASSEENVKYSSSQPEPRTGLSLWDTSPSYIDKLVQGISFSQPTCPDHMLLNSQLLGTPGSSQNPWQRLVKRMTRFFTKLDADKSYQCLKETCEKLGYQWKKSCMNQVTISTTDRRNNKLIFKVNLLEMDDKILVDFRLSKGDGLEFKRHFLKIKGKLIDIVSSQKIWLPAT

COCCc1ccc(-c2c(C)nc3c(N4CCOCC4)ccnn23)cn1 [JNJ-42396302]
pKi ([1]; read-out: Ki): 5.64
Ki ([1]; read-out: pKi (converted)): 2.24 µM
inhibition [2]: -9%
inhibition [3]: -1%
inhibition [4]: -6%
inhibition [5]: 7%
inhibition [6]: 2%
inhibition [7]: 8%
inhibition [8]: 1%
inhibition [9]: 9%
inhibition [10]: 2%
inhibition [11]: 4%
inhibition [12]: -1%
inhibition [13]: -1%
inhibition [14]: 15%
inhibition [15]: -5%
inhibition [16]: 3%
inhibition [17]: -4%
inhibition [18]: -6%
inhibition [19]: -7%
inhibition [20]: -3%
inhibition [21]: 1%
inhibition [22]: 9%
inhibition [23]: 10%
inhibition [24]: -5%
pKi [25]: 4.82
pKi [26]: 4.64
effect [27]: 6.35%
effect [28]: 11%
effect [29]: 13.9%
effect [30]: -3.5%
effect [31]: 5.7%
effect [32]: 8.9%
effect [33]: 3.35%
effect [34]: -13.8%
effect [35]: 2.4%
effect [36]: -3%
inhibition [37]: 25.3%
